{"source": "ChEMBL document CHEMBL5528083", "about": "“Discovery of a Novel Thienopyrimidine Compound as a Urate Transporter 1 and Glucose Transporter 9 Dual Inhibitor with Improved Efficacy and Favorable Druggability” (J Med Chem, 2024)", "key": {"Mus musculus [1]": {"species_on_record": "Mus musculus", "test": "Reduction in serum uric acid level in acute hyperuricemia state Kunming mouse model assessed as SUA level", "assay_type": "functional"}, "Mus musculus [2]": {"species_on_record": "Mus musculus", "test": "Reduction in serum uric acid level in acute hyperuricemia state Kunming mouse model assessed as SUA level by measuring decrease ratio relative to control", "assay_type": "functional", "design": "concentration or dose not given beside the values"}, "[3]": {"target": "Xanthine dehydrogenase/oxidase (Bos taurus, UniProt P80457)", "sequence (P80457 whole entry)": "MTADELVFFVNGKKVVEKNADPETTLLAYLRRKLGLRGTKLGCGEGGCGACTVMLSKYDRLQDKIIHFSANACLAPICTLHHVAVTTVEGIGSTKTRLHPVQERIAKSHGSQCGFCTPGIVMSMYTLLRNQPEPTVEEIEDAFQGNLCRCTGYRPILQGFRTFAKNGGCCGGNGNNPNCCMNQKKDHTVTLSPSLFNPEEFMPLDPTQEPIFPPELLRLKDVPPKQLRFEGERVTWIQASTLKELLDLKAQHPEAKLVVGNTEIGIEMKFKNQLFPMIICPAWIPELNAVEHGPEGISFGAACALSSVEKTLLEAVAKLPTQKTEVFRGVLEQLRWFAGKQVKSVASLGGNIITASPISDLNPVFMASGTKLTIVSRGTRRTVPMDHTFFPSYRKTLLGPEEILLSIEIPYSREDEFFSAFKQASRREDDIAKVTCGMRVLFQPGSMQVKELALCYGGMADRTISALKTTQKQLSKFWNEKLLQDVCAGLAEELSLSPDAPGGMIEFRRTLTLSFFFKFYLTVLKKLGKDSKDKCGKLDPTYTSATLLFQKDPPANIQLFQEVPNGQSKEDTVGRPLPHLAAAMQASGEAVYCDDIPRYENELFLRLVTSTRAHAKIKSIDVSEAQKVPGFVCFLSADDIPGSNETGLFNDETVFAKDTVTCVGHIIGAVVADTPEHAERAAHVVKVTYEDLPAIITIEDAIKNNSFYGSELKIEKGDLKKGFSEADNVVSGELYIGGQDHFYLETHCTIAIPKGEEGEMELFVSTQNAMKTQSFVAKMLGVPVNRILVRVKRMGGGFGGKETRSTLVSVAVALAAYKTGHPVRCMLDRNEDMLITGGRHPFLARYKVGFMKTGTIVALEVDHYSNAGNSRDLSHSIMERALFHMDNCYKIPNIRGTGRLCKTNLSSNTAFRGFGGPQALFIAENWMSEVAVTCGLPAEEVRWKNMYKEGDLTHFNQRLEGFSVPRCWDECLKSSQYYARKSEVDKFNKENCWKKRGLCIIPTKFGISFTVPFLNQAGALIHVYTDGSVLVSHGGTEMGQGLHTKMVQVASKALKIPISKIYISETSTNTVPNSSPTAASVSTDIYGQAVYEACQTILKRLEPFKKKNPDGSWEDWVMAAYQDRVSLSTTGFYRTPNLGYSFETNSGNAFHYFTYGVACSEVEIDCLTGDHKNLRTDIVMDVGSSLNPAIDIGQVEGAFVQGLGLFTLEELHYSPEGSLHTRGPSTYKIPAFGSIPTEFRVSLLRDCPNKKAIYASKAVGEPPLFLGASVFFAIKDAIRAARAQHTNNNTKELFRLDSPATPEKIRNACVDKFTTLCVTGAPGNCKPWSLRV", "test": "Inhibition of bovine XOD using xanthine as substrate assessed as inhibitory ratio at 10 uM by spectrophotometric analysis relative to control", "conditions": "cattle"}, "Mus musculus [4]": {"system": "Mus musculus", "test": "Reduction in serum uric acid level in acute hyperuricemia state Kunming mouse model assessed as SUA level at 2 mg/kg, po (reference value: 1037 +/- 106.59 uM)", "assay_type": "functional"}, "Mus musculus [5]": {"system": "Mus musculus", "test": "Reduction in serum uric acid level in acute hyperuricemia state Kunming mouse model assessed as SUA level by measuring decrease ratio at 2 mg/kg, po relative to control", "assay_type": "functional", "design": "scale not given: the % may be the effect or the level left"}, "Rattus norvegicus [6]": {"system": "Rattus norvegicus", "test": "Reduction in serum uric acid level in po dosed acute hyperuricemia state Sprague-Dawley rat model assessed as SUA level (reference value: 955.20 +/- 85.56 uM)", "assay_type": "functional"}, "Rattus norvegicus [7]": {"system": "Rattus norvegicus", "test": "Reduction in serum uric acid level in po dosed acute hyperuricemia state Sprague-Dawley rat model assessed as SUA level by measuring decrease ratio relative to control", "assay_type": "functional", "design": "scale not given: the % may be the effect or the level left"}, "Mus musculus [8]": {"species_on_record": "Mus musculus", "test": "Reduction in serum uric acid level in chronic hyperuricemia state Kunming mouse model assessed as SUA level (reference value: 660.33 +/- 103.57 uM)", "assay_type": "functional"}, "Mus musculus [9]": {"species_on_record": "Mus musculus", "test": "Reduction in serum uric acid level in chronic hyperuricemia state Kunming mouse model assessed as SUA level by measuring decrease ratio relative to control", "assay_type": "functional", "design": "scale not given: the % may be the effect or the level left"}, "[10]": {"test": "Acute toxicity in Kunming mouse assessed as fatality rate at 1000 mg/kg, po administered as single dose monitored for 7 days", "assay_type": "organism-based", "conditions": "Kunming, in vivo, time 7 day, read-out: Activity"}, "[11]": {"test": "Acute toxicity in Kunming mouse assessed as fatality rate at 500 mg/kg, po administered as single dose monitored for 7 days", "assay_type": "organism-based", "conditions": "Kunming, in vivo, time 7 day, read-out: Activity"}, "[12]": {"test": "Subacute toxicity in Kunming mouse assessed as abnormal behavior at 25 mg/kg, po administered every other day for 14 days", "assay_type": "organism-based", "conditions": "in vivo, 336 h, time 14 day"}, "[13]": {"test": "Toxicity in Kunming female mouse assessed as renal injury at 100 mg/kg, po administered every other day for 14 days by H and E staining based assay", "assay_type": "organism-based", "conditions": "in vivo, 336 h, time 14 day"}, "[14]": {"test": "Toxicity in Kunming female mouse assessed as coagulation necrosis of hepatocyte at 100 mg/kg, po administered every other day for 14 days by H and E staining based assay", "assay_type": "organism-based", "conditions": "336 h, time 14 day"}, "[15]": {"test": "Toxicity in Kunming female mouse assessed as balloon like degeneration of liver at 100 mg/kg, po administered every other day for 14 days by H and E staining based assay", "assay_type": "organism-based", "conditions": "in vivo, 336 h, time 14 day"}}, "data": [{"compound": "O=C(O)CSc1nnc(Br)n1-c1ccc(C2CC2)c2ccccc12", "values": [{"measurement": "Activity", "setting": "Mus musculus [1]", "value": 841.2, "unit": "µM"}, {"measurement": "Activity", "setting": "Mus musculus [2]", "value": 28.5, "unit": "%"}, {"measurement": "inhibition at 10 µM", "setting": "[3]", "value": 5.72, "unit": "%"}, {"measurement": "Activity", "setting": "Mus musculus [4]", "value": 706.25, "unit": "µM"}, {"measurement": "Activity", "setting": "Mus musculus [5]", "value": 35.56, "unit": "%"}, {"measurement": "Activity", "setting": "Rattus norvegicus [6]", "value": 685.6, "unit": "µM"}, {"measurement": "Activity", "setting": "Rattus norvegicus [7]", "value": 31.77, "unit": "%"}, {"measurement": "Activity", "setting": "Mus musculus [8]", "value": 476, "unit": "µM"}, {"measurement": "Activity", "setting": "Mus musculus [9]", "value": 33.56, "unit": "%"}, {"measurement": "mortality at 168 h", "setting": "[10]", "value": 60, "unit": "%"}, {"measurement": "mortality at 168 h", "setting": "[11]", "value": 20, "unit": "%"}, {"measurement": "Activity", "setting": "[12]", "value": "Non-Toxic"}, {"measurement": "Activity", "setting": "[13]", "value": "Toxic"}, {"measurement": "Activity", "setting": "[14]", "value": "Toxic"}, {"measurement": "Activity", "setting": "[15]", "value": "Toxic"}]}]}
